The structures appear in SMILES notation. The source made the active and inactive calls. The calls are words filed in the database; no cut-off is given here.

As usually defined, the IC50 is the concentration needed to halve the response being measured.

Data set [1] relates to HepG2. In words: Phototoxicity against human HepG2 cells pretreated for 24 hrs followed by 3.61 J irradiation for 14 mins measured after 24 hrs by Alamar blue assay. Conditions: HepG2, light or radiation study. The format is functional, cell-based.
Data set [2] can be described thus: Dark toxicity against human Caco2 cells assessed as cell viability at 0.1 to 1 uM pretreated for 24 hrs followed by 14 mins dark incubation after 1 to 24 hrs by Alamar blue assay relative to control. It counts as cell-based. Conditions: Caco-2 cells, read-out: Activity. (In general: The colour change of resazurin is a common sign of viable cells or microbes.)
The nature of data set [3]: Dark toxicity against human HepG2 cells assessed as cell viability at 5 to 10 uM pretreated for 24 hrs followed by 14 mins dark incubation measured after 1 to 24 hrs by Alamar blue assay relative to control. The format is cell-based. Conditions: read-out: Activity.
Data set [4] concerns Caco-2. Description: Phototoxicity against human Caco2 cells assessed as reduction in cell viability at 1 uM pretreated for 24 hrs followed by 3.61 J irradiation for 14 mins measured after 24 hrs by Alamar blue assay. It counts as functional, cell-based.
Data set [5] has as its system Caco-2. Description: Phototoxicity against human Caco2 cells pretreated for 24 hrs followed by 1.81 J irradiation for 7 mins measured after 1 hr by Alamar blue assay. The format is functional, cell-based. To be noted: Caco-2, light or radiation study.
A short description of data set [6]: Dark toxicity against human HepG2 cells assessed as cell viability at 1 uM pretreated for 24 hrs followed by 14 mins dark incubation after 48 hrs by Alamar blue assay relative to control. To be noted: read-out: Activity. The format is cell-based.
For data set [7], the system named is Caco-2. Description: Phototoxicity against human Caco2 cells assessed as cell viability at 5 uM pretreated for 24 hrs followed by 3.61 J irradiation for 14 mins measured after 24 hrs by Alamar blue assay (reference value: 60%). The format is functional. Conditions: Caco-2, light or radiation study, read-out: Activity.
Data set [8] in a line: Dark toxicity against human HepG2 cells pretreated for 24 hrs followed by 14 mins dark incubation measured after 1 hr by Alamar blue assay. It counts as cell-based.
Data set [9] in a line: Dark toxicity against human Caco2 cells pretreated for 24 hrs followed by 14 mins dark incubation measured after 24 hrs by Alamar blue assay. It counts as cell-based. To be noted: Caco-2 cells.
Data set [10] relates to HepG2. In words: Phototoxicity against human HepG2 cells assessed as reduction in cell viability at 1 uM pretreated for 24 hrs followed by 1.81 J irradiation for 7 mins measured after 24 hrs by Alamar blue assay. The format is functional, cell-based.
Data set [11] concerns HepG2. In words: Phototoxicity against human HepG2 cells pretreated for 24 hrs followed by 3.61 J irradiation for 14 mins measured after 1 hr by Alamar blue assay. It counts as functional, cell-based. Conditions: HepG2, light or radiation study.
For data set [12], the system named is Caco-2. In words: Phototoxicity against human Caco2 cells assessed as cell viability at 5 uM pretreated for 24 hrs followed by 1.81 J irradiation for 7 mins measured after 24 hrs by Alamar blue assay (reference value: 60%). To be noted: Caco-2, light or radiation study, read-out: Activity. The format is functional.
A short description of data set [13]: Dark toxicity against human Caco2 cells assessed as cell viability at 5 to 10 uM pretreated for 24 hrs followed by 14 mins dark incubation measured after 1 to 24 hrs by Alamar blue assay relative to control. The format is cell-based. To be noted: Caco-2 cells, read-out: Activity.
For data set [14], the system named is Caco-2. In words: Ratio of IC50 for human Caco2 cells pretreated for 24 hrs followed by 14 mins dark incubation to IC50 for human Caco2 cells pretreated for 24 hrs followed by 3.61 J irradiation for 14 mins.
Data set [15] has as its system Caco-2. In words: Phototoxicity against human Caco2 cells pretreated for 24 hrs followed by 3.61 J irradiation for 14 mins measured after 24 hrs by Alamar blue assay. It counts as functional, cell-based. To be noted: Caco-2, light or radiation study.
The nature of data set [16]: Dark toxicity against human HepG2 cells pretreated for 24 hrs followed by 14 mins dark incubation measured after 24 hrs by Alamar blue assay. It counts as cell-based.
Data set [17] concerns HepG2. Description: Phototoxicity against human HepG2 cells assessed as reduction in cell viability at 1 uM pretreated for 24 hrs followed by 3.61 J irradiation for 14 mins measured after 1 hr by Alamar blue assay. The format is functional, cell-based.
The nature of data set [18]: Dark toxicity against human Caco2 cells pretreated for 24 hrs followed by 14 mins dark incubation measured after 1 hr by Alamar blue assay. The format is cell-based. Conditions: Caco-2 cells.
For data set [19], the system named is HepG2. In words: Phototoxicity against human HepG2 cells pretreated for 24 hrs followed by 1.81 J irradiation for 7 mins measured after 1 hr by Alamar blue assay. It counts as functional, cell-based. To be noted: HepG2, light or radiation study.
Data set [20] has as its system Caco-2. Description: Phototoxicity against human Caco2 cells assessed as reduction in cell viability at 1 uM pretreated for 24 hrs followed by 1.81 J irradiation for 7 mins measured after 1 to 24 hrs by Alamar blue assay. The format is functional, cell-based.
The subject of data set [21] is HepG2. In words: Phototoxicity against human HepG2 cells pretreated for 24 hrs followed by 1.81 J irradiation for 7 mins measured after 24 hrs by Alamar blue assay. To be noted: HepG2, light or radiation study. The format is functional, cell-based.
The test system of data set [22] is Caco-2. In words: Phototoxicity against human Caco2 cells pretreated for 24 hrs followed by 3.61 J irradiation for 14 mins measured after 1 hr by Alamar blue assay. The format is functional, cell-based. To be noted: Caco-2, light or radiation study.
Data set [23] deals with Caco-2. Description: Phototoxicity against human Caco2 cells pretreated for 24 hrs followed by 1.81 J irradiation for 7 mins measured after 24 hrs by Alamar blue assay. It counts as functional, cell-based. Conditions: Caco-2, light or radiation study.
The subject of data set [24] is HepG2. In words: Phototoxicity against human HepG2 cells assessed as reduction in cell viability at 1 uM pretreated for 24 hrs followed by 3.61 J irradiation for 14 mins measured after 24 hrs by Alamar blue assay. The format is functional, cell-based.
The nature of data set [25]: Induction of singlet oxygen production in chloroform.
Data set [26] concerns HepG2. In words: Phototoxicity against human HepG2 cells assessed as reduction in cell viability at 1 uM pretreated for 24 hrs followed by 1.81 J irradiation for 7 mins measured after 1 hr by Alamar blue assay. It counts as functional, cell-based.
The nature of data set [27]: Dark toxicity against human Caco2 cells assessed as cell viability at 1 uM pretreated for 24 hrs followed by 14 mins dark incubation after 1 to 24 hrs by Alamar blue assay relative to control. To be noted: Caco-2 cells, read-out: Activity. It counts as cell-based.
In data set [28] the test system is Caco-2. In words: Phototoxicity against human Caco2 cells assessed as cell viability at 1 uM pretreated for 24 hrs followed by 3.61 J irradiation for 14 mins measured after 24 hrs by Alamar blue assay (reference value: 80%). The format is functional. To be noted: Caco-2, light or radiation study, read-out: Activity.
Data set [29] is described as follows: Dark toxicity against human HepG2 cells assessed as cell viability at 10 uM pretreated for 24 hrs followed by 14 mins dark incubation measured after 1 to 24 hrs by Alamar blue assay relative to control. It counts as cell-based. To be noted: read-out: Activity.
Data set [30] concerns Caco-2. Description: Dark toxicity against human Caco2 cells assessed as reduction in cell viability at 10 uM pretreated for 24 hrs followed by 14 mins dark incubation measured after 1 to 24 hrs by Alamar blue assay. It counts as cell-based. To be noted: caco-2, 10 µM.
The test system of data set [31] is HepG2. Description: Phototoxicity against human HepG2 cells assessed as reduction in cell viability at 5 uM pretreated for 24 hrs followed by 3.61 J irradiation for 14 mins measured after 24 hrs by Alamar blue assay. The format is functional, cell-based.
For data set [32], the system named is HepG2. In words: Phototoxicity against human HepG2 cells assessed as cell viability at 5 uM pretreated for 24 hrs followed by 3.61 J irradiation for 14 mins measured after 24 hrs by Alamar blue assay relative to control. The format is functional. To be noted: HepG2, light or radiation study, read-out: Activity.
In data set [33] the test system is Caco-2. Description: Dark toxicity against human Caco2 cells assessed as reduction in cell viability at 1 uM pretreated for 24 hrs followed by 14 mins dark incubation measured after 1 to 24 hrs by Alamar blue assay. The format is cell-based. Conditions: caco-2, 1 µM.
Data set [34] has as its system HepG2. In words: Phototoxicity against human HepG2 cells assessed as reduction in cell viability up to 10 uM pretreated for 24 hrs followed by 1.81 J irradiation for 7 mins measured after 1 hr by Alamar blue assay. The format is functional, cell-based.
The subject of data set [35] is Caco-2. In words: Phototoxicity against human Caco2 cells at 5 to 10 uM pretreated for 24 hrs followed by 1.81 J irradiation for 7 mins measured after 24 hrs by Alamar blue assay. The format is functional, cell-based.
Data set [36] deals with Caco-2. Description: Phototoxicity against human Caco2 cells at 5 to 10 uM pretreated for 24 hrs followed by 3.61 J irradiation for 14 mins measured after 24 hrs by Alamar blue assay. It counts as functional, cell-based.
Data set [37] deals with HepG2. In words: Dark toxicity against human HepG2 cells assessed as reduction in cell viability at 1 uM pretreated for 24 hrs followed by 14 mins dark incubation measured after 1 to 24 hrs by Alamar blue assay. The format is cell-based. To be noted: hepg2, 1 µM.

`CCCCCCN1/C(=C/C2=C(NC)C(=C\c3ccc4ccccc4[n+]3CCCCCC)/C2=O)Sc2ccccc21.[I-]`: the IC50 turned out to be 0.83 µM with HepG2 [1]; 3.9 µM in the data set with Caco-2 [5]; 0.93 µM in the data set with HepG2 [11]; 0.47 µM in the data set on Caco-2 [15]; 3.39 µM with HepG2 [19]; 1.02 µM in the data set with HepG2 [21]. Moreover, the IC50 came out at 1.46 µM in the data set on Caco-2 [22] and 1.16 µM in the data set with Caco-2 [23]. In addition, in [2], the viability at up to 1 µM is 70%. For the same molecule, in [3], the viability at 24 h, 10 µM came out at 0%. In addition, the result (in the data set on Caco-2 [4]; with HepG2 [10]; in the data set on HepG2 [17]; with Caco-2 [20]; in the data set with HepG2 [24]; in data set [25]) was Active. Besides, the viability at 48 h, 1 µM in data set [6] was 70%. The viability at 5 µM in the data set with Caco-2 [7] and in the data set on Caco-2 [12] was 0% throughout. For the same molecule, the IC50 at 1 h turned out to be 2.93 µM in data set [8] and 5.11 µM in data set [18]. The IC50 at 24 h in data set [9] was found to be 1.27 µM; in [16] it was 1.36 µM. In data set [13], the viability at up to 10 µM was determined as 0%. Also, in the data set with Caco-2 [14], the “Ratio IC50” value turned out to be 3.6.

Consider `CCCCCCN1/C(=C/C2=C(N)C(=C\c3ccc4ccccc4[n+]3CCCCCC)/C2=O)Sc2ccccc21`, for which the IC50 was determined as 0.65 µM with HepG2 [1]; 1.24 µM in the data set on Caco-2 [5]; 0.86 µM in the data set on HepG2 [11]; 0.69 µM in the data set with Caco-2 [15]; 0.75 µM in the data set with HepG2 [19]; 0.94 µM with HepG2 [21]. Moreover, the values for the IC50 in the data set on Caco-2 [22] and with Caco-2 [23] were 0.95 µM and 1.39 µM, respectively. Also, the viability at 24 h, 10 µM in data set [3] stood at 0%. The result (in the data set with HepG2 [26]; in the data set on HepG2 [10]; in the data set with HepG2 [17]; in the data set with Caco-2 [20]; in the data set with HepG2 [24]; in data set [25]) was Active. Moreover, the viability at 48 h, 1 µM in data set [6] is 20%. Further, the half-maximal inhibitory concentration (IC50) at 1 h in [8] was 1.71 µM; in data set [18] it was 1.72 µM. For the same molecule, the IC50 at 24 h in data set [9] is 1.65 µM; in [16], 1.4 µM. In data set [13], the viability at up to 10 µM stood at 0%. Besides, in data set [27], the viability at 24 h, 1 µM was determined as 20%. Besides, the viability at 1 µM in the data set on Caco-2 [28] stood at 0%.

In the case of `CCCCCCN1/C(=C/C2=C([O-])C(=C\c3ccc4ccccc4[n+]3CCCCCC)/C2=O)Sc2ccccc21`, the IC50 in the data set on HepG2 [1] was 5.06 µM; in the data set with Caco-2 [5], greater than 10 µM; in the data set with HepG2 [11], 8.95 µM; in the data set with Caco-2 [15], 5.08 µM; with HepG2 [19], 8.53 µM; with HepG2 [21], 8.24 µM. For the same molecule, the figures for the IC50 in the data set on Caco-2 [22] and in the data set on Caco-2 [23] were greater than 10 µM and 5.38 µM, respectively. Moreover, the viability at 24 h, 10 µM in [29] came to 15%. Besides, the Activity entry in the data set on Caco-2 [30], in the data set on Caco-2 [33] and in the data set with HepG2 [37] was “Non-Toxic” in each case. For the same molecule, the figures for the IC50 at 1 h in [8] and in data set [18] were 9.1 µM and greater than 10 µM, respectively. Besides, the IC50 at 24 h was determined as 5.8 µM in data set [9] and 7.84 µM in data set [16]. Further, the outcome (in the data set with HepG2 [31]; in the data set with Caco-2 [35]; with Caco-2 [36]; in data set [25]) was Active. The viability at 5 µM with HepG2 [32] was 50%. For the same molecule, the outcome with HepG2 [34] was inactive.

These data come from ChEMBL document CHEMBL4052655, “Synthesis, spectroscopic characterization and biological evaluation of unsymmetrical aminosquarylium cyanine dyes” (Bioorg Med Chem, 2017).
